# Patent US8507464B2, “Phosphoramidate alkylator prodrugs” (Threshold Pharmaceuticals, Inc., priority 2005, dated 2013)
# Like-named read-outs stand apart in the source and are kept apart here.
# How the values were obtained:
# NCI-H460 cells [1] = assay: Antiproliferation assay - oxygen dependence; assay type: cell-based, human
# Text: . […] The calculated IC50 values (μM) are tabulated in Table Y1 (H460 cells) or Table Y2 (HT29 cells) below.
# H460 cell line = assay: Anti-proliferation assay, hypoxia vs normoxia (Table 1A); details: for IC50: Homo sapiens; for HCR P: ratio of IC50 in normoxia and hypoxia
# MES-SA cells = assay: Antiproliferation assay (Alamar Blue), anoxia vs air; details: Homo sapiens, 2 h
# [2] = system: H460 lung carcinoma spheroids; assay: Spheroid model, clonogenic survival; details: Homo sapiens, NCI-H460, 2 h, read-out: IC90 H460 Spheroid 10% O2
# NCI-H460 cells [3] = assay: Clonogenic assay - oxygen dependence; details: Homo sapiens
# NCI-H460 cells [4] = assay: Antiproliferation assay (Alamar Blue), anoxia vs air
# [5] = system: mouse (MLM) liver microsomal proteins; assay type: in vitro ADME; details: Table 2B
# HT29 cells = assay: Antiproliferation assay (Alamar Blue), anoxia vs air; details: Homo sapiens, HT-29, 2 h
# [6] = Plasma stability (Table 2B)
# [7] = system: H460 cells exposed as monolayers; assay: Clonogenic survival of monolayer cells (Example 35); details: Homo sapiens, NCI-H460, 2 h
# [8] = assay type: physicochemical; details: glassy carbon, Ag/AgCl reference; for Reduction Potentials, 100 mV/sec: scan rate 100 mV/sec; for Reduction Potentials, 10,000 mV/sec: scan rate 10,000 mV/sec
# in vivo [9] = assay: in vivo
# HT29 = assay: Anti-proliferation assay, hypoxia vs normoxia (Table 1B); details: for IC50: Homo sapiens
# in vivo [10] = details: CD-1, mouse, 50 mg/kg
# human H460 cells = assay: Clonogenic survival assay, hypoxia vs normoxia (Table 1A); details: for IC90: Homo sapiens
# [11] = Homo sapiens, NCI-H460, read-out: IC50 in H460 cells, 0.6% O2
# [12] = Homo sapiens, NCI-H460, read-out: IC50 in H460 cells, 1% O2
# [13] = Homo sapiens, NCI-H460; read-out: IC50 in H460 cells, Air
# [14] = Homo sapiens, NCI-H460; read-out: IC50 in H460 cells, N2
# [15] = NCI-H460, read-out: Hypoxia P (proliferation IC50)
# [16] = NCI-H460, read-out: Normoxia P (proliferation IC50)
# [17] = Homo sapiens, NCI-H460, 2 h, read-out: IC50 H460 Air, air, 2 h exposure
# [18] = Homo sapiens, NCI-H460, 2 h, read-out: IC50 H460 Anoxia, anoxia, 2 h exposure
# [19] = CD-1, Balb/c for Compound 1, mouse, iv
# [20] = Homo sapiens, NCI-H460, read-out: IC50 in H460 cells, 0.1% O2
# [21] = Homo sapiens, NCI-H460, read-out: IC50 in H460 cells, 10% O2
smiles,measurement,setting,value
Cn1c(COP2(=O)N(CCBr)CCCN2CCBr)cnc1[N+](=O)[O-] [Compound 35],IC50,"NCI-H460 cells [1]; Homo sapiens, NCI-H460, read-out: IC50 in H460 cells, 0.3% O2",6 µM
same,IC50,NCI-H460 cells [1]; [11],5 µM
same,IC50,NCI-H460 cells [1]; [12],40 µM
same,IC50,NCI-H460 cells [1]; [13],50 µM
same,IC50,NCI-H460 cells [1]; [14],0.05 µM
same,IC50,H460 cell line; [15],0.075 µM
same,IC50,H460 cell line; [16],50 µM
same,HCR P,H460 cell line,625
same,IC50,MES-SA cells; read-out: IC50 MES-SA Air,100 µM
same,IC50,MES-SA cells; read-out: IC50 MES-SA Anoxia,1 µM
same,IC90,[2],22 µM
same,IC90,"NCI-H460 cells [3]; NCI-H460, read-out: IC90 H460 0.6% O2",3 µM
same,IC90,"NCI-H460 cells [3]; NCI-H460, read-out: IC90 H460 Air",30 µM
same,IC90,"NCI-H460 cells [3]; NCI-H460, read-out: IC90 H460 N2",0.5 µM
same,IC50,NCI-H460 cells [4]; [17],50 µM
same,IC50,NCI-H460 cells [4]; [18],0.075 µM
same,IC50,"NCI-H460 cells [4]; read-out: IC50 H460 Air, air, 2 h exposure",55 µM
same,Metabolic stability (MLM) (% at 30 min),[5],56%
same,IC50,HT29 cells; read-out: IC50 HT29 Air,> 100 µM
same,IC50,HT29 cells; read-out: IC50 HT29 Anoxia,1.8 µM
same,Plasma stability (% at 30 min),[6],85%
"Nc1n[n+]([O-])c2ccccc2[n+]1[O-] [Tirapazamine, reference compound]",IC90,[2],> 200 µM
same,IC90,[7]; read-out: IC90 H460 Monolayer 0.6% O2,27 µM
same,IC90,[7]; read-out: IC90 H460 Monolayer Air,> 100 µM
same,IC90,[7]; read-out: IC90 H460 Monolayer N2,14 µM
CC(OP(=O)(NCCBr)NCCBr)c1ccc([N+](=O)[O-])cc1 (stereo not drawn) [Compound 78],"Reduction Potentials, 100 mV/sec",[8],−704 mV
same,"Reduction Potentials, 10,000 mV/sec",[8],−746 mV
same,IC50,NCI-H460 cells [4]; [17],> 100 µM
same,IC50,NCI-H460 cells [4]; [18],> 100 µM
CN(CCCl)P(=O)(OCc1cnc([N+](=O)[O-])n1C)N(C)CCCl [Compound 5],clearance,"in vivo [9]; CD-1 (Compounds 5, 23, 36), Balb/c (Compound 1), mouse, iv",185 mL/min/kg
same,Cmax,"in vivo [9]; CD-1, Balb/c for Compound 1, mouse, ip",3000 ng/mL
same,AUC,in vivo [9]; [19],4500 ng·h/mL
same,Cmax,in vivo [9]; [19],16900 ng/mL
same,Vd,in vivo [9]; [19],1.25 L/kg
same,half-life,"in vivo [9]; CD-1, Balb/c for Compound 1, mouse, iv, t ½, intravenous administration in mice, mice",4.8 min
same,AUC,"in vivo [9]; CD-1, mouse, ip",1000 ng·h/mL
same,IC50,NCI-H460 cells [1]; [20],1 µM
same,IC50,NCI-H460 cells [1]; [11],1 µM
same,IC50,NCI-H460 cells [1]; [12],10 µM
same,IC50,NCI-H460 cells [1]; [21],5 µM
same,IC50,NCI-H460 cells [1]; [13],40 µM
same,IC50,NCI-H460 cells [1]; [14],0.03 µM
same,IC50,H460 cell line; [15],4.5 µM
same,IC50,H460 cell line; [16],3.5 µM
same,HCR P,H460 cell line,1
same,"Reduction Potentials, 100 mV/sec",[8],−606 mV
same,"Reduction Potentials, 10,000 mV/sec",[8],−634 mV
same,HT29 HCR P,HT29,>10
same,IC50,"HT29; HT-29, read-out: HT29 P H (proliferation IC50, hypoxia)",10 µM
same,IC50,"HT29; HT-29, read-out: HT29 P N (proliferation IC50, normoxic)",> 100 µM
same,AUC,in vivo [10]; ip,57400 ng·h/mL
same,Cmax,in vivo [10]; ip,3000 ng/mL
same,Tmax,in vivo [10]; ip,5 min
same,half-life,in vivo [10]; ip,2.56 min
same,AUC,in vivo [10]; iv,270000 ng·h/mL
same,Cmax,in vivo [10]; iv,16900 ng/mL
same,Tmax,in vivo [10]; iv,5 min
same,half-life,in vivo [10]; iv,4.67 min
same,IC50,NCI-H460 cells [4]; [17],6 µM
same,IC50,NCI-H460 cells [4]; [18],0.05 µM
same,Metabolic stability (MLM) (% at 30 min),[5],5%
same,"Metabolic stability (MLM), value in parentheses",[5]; parentheses not explained,(20) %
same,IC50,HT29 cells; read-out: IC50 HT29 Air,> 100 µM
same,IC50,HT29 cells; read-out: IC50 HT29 Anoxia,10 µM
same,Plasma stability (% at 30 min),[6],100%
same,"Plasma stability, value in parentheses",[6]; parentheses not explained,(85) %
Cn1c(COP2(=O)N(CCCl)CCCN2CCCl)cnc1[N+](=O)[O-] [Compound 16],IC90,"human H460 cells; NCI-H460, read-out: Hypoxia C (clonogenic IC90)",0.2 µM
same,IC90,"human H460 cells; NCI-H460, read-out: Normoxia C (clonogenic IC90)",35 µM
same,HCR C,human H460 cells; ratio of IC90 in normoxia and hypoxia,175
same,IC50,NCI-H460 cells [1]; [20],10 µM
same,IC50,NCI-H460 cells [1]; [11],10 µM
same,IC50,NCI-H460 cells [1]; [21],100 µM
same,IC50,NCI-H460 cells [1]; [13],> 100 µM
same,IC50,NCI-H460 cells [1]; [14],0.3 µM
same,IC50,H460 cell line; [15],1.6 µM
same,IC50,H460 cell line; [16],100 µM
same,HCR P,H460 cell line,60
same,IC50,NCI-H460 cells [4]; [17],> 100 µM
same,IC50,NCI-H460 cells [4]; [18],1.6 µM
same,Metabolic stability (MLM) (% at 30 min),[5],40%
Cn1c(COP2(=O)N(CCBr)CCN2CCBr)cnc1[N+](=O)[O-] [Compound 108],IC50,NCI-H460 cells [1]; [11],> 100 µM
same,IC50,"NCI-H460 cells [1]; Homo sapiens, NCI-H460, read-out: IC50 in H460 cells, Air",> 100 µM
same,IC50,"NCI-H460 cells [1]; Homo sapiens, NCI-H460, read-out: IC50 in H460 cells, N2",1 µM
same,"Reduction Potentials, 100 mV/sec",[8],−614 mV
same,"Reduction Potentials, 10,000 mV/sec",[8],−593 mV
same,IC50,NCI-H460 cells [4]; [17],> 100 µM
same,IC50,NCI-H460 cells [4]; [18],1.1 µM
